{"source": "patent US7037656B2", "about": "“Methods and compositions for identifying ligands for nuclear receptors” (priority 2000, dated 2006)", "experiment_in_all_cases": "Yeast 6x EcRE-lacZ β-galactosidase transactivation assay", "key": {"[1]": {"target": "T1, Dm ΔN EcR + RXRγ + GRIP1 (Drosophila melanogaster, UniProt P34021)", "T1 construct": "ubiquitin (human, 76 aa) (N, cleaved yes); expressed in transfected cells", "T1 sequence (P34021 221-878 limits assumed, stated change not applied)": "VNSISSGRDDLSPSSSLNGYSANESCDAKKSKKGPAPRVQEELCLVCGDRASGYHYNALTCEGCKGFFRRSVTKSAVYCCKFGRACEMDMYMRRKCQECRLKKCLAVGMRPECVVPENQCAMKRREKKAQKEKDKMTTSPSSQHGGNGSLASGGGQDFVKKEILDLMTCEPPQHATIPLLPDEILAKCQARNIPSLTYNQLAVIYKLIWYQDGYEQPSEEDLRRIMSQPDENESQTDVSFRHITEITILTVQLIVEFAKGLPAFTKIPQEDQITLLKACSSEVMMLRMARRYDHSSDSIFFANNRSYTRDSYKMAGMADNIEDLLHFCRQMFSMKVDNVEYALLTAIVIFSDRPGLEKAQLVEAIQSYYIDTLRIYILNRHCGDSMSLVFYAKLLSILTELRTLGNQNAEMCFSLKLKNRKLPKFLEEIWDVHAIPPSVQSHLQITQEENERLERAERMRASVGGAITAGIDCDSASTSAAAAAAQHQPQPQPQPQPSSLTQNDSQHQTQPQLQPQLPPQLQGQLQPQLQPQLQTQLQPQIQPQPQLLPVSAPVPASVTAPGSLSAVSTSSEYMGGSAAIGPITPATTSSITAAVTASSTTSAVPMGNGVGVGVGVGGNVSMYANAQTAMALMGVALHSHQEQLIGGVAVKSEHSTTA", "T1 sequence (P28705 whole entry partner)": "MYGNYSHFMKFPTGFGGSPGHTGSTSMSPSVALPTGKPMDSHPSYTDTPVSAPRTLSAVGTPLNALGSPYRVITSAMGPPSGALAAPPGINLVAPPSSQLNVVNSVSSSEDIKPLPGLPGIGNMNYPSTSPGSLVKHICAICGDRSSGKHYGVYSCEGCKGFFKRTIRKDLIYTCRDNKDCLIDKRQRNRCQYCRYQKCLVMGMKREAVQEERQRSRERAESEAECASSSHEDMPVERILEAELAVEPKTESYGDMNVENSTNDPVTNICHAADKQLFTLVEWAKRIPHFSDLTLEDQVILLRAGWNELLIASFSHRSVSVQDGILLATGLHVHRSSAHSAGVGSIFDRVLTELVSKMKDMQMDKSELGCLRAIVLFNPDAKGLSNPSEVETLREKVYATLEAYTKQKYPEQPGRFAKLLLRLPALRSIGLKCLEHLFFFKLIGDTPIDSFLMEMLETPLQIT", "T1 sequence (Q61026 322-1121 partner limits assumed)": "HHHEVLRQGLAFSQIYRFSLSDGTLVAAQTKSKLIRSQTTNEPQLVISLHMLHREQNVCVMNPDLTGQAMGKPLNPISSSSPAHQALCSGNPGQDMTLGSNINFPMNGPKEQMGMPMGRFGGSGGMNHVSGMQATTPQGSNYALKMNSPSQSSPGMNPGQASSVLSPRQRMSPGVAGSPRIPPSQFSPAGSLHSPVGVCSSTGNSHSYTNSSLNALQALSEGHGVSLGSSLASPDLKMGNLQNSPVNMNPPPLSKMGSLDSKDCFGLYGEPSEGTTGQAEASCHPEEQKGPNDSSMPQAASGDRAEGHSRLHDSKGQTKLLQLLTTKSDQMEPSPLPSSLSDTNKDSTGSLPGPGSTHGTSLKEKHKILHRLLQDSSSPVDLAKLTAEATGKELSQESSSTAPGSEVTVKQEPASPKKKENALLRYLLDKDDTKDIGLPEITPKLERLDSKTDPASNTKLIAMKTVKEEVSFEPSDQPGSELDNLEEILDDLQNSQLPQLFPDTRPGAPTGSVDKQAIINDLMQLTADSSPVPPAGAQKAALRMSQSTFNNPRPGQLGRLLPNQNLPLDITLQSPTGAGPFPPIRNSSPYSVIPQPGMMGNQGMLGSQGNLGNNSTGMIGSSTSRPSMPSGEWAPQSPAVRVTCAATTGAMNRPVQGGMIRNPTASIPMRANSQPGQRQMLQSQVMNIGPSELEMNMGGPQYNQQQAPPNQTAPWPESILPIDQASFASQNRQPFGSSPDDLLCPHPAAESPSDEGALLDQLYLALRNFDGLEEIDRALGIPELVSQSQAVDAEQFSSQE", "assay_type": "cell-based, Drosophila melanogaster; mouse", "conditions": "RH 5992 10 μM, 4 hours, DMSO control 0.364", "protocol": "The human RXR α (Genbank accession number X52773), mouse RXR β (Genbank accession number X66224) or mouse RXR γ (Genebank accession number X66225) subtypes were expressed in yeast-E. coli multicopy 2μ expression plasmids under regulation of CUP1 promoter with the LEU2 selective marker (1).\nBriefly, yeast cells are cultured in 5 mL of YPD liquid medium overnight at 30° C. The cell culture was diluted 1:20 in YPD media and further grown until cell density reached an O.D of 0.6. at OD600. The cells were pelleted by centrifugation and washed with 10 mL of TE+0.1M lithium acetate. Cells are then resuspended in 10 mL TE+0.1M lithium acetate and incubated at 30° C. for 1 hour. Cells are collected and resuspended in 0.5 mL of TE+ 0.1M lithium acetate. […]\n(§1) Using the transformation method set forth above, yeast were co-transformed with a reporter gene as shown in FIG. 2 and the expression vector encoding the full-length D. melanogaster ecdysone receptor, DmEcR (FIG. 3A) in the presence or absence of the Dm EcR heterodimer partner, DmUSP (FIG. 4A). […] As the N-terminal portion of the Dm EcR receptor is reported to play a role in ligand independent transactivation, an expression vector containing an N-terminal deletion in the EcR was constructed (see FIG. 3B) and assessed in the β-galactosidase assays described above. […]"}, "[2]": {"target": "T2, Dm ΔN EcR +Aa USPa-form + GRIP1 (Drosophila melanogaster, UniProt P34021)", "T2 construct": "ubiquitin (human, 76 aa) (N, cleaved yes); expressed in transfected cells", "T2 sequence (P34021 221-878, stated change not applied)": "as the sequence (P34021 221-878 limits assumed, stated change not applied) above", "assay_type": "cell-based, Drosophila melanogaster; Aedes aegypti", "conditions": "RH 5992 10 μM, 4 hours, DMSO control 0.243", "protocol": "Briefly, yeast cells are cultured in 5 mL of YPD liquid medium overnight at 30° C. The cell culture was diluted 1:20 in YPD media and further grown until cell density reached an O.D of 0.6. at OD600. The cells were pelleted by centrifugation and washed with 10 mL of TE+0.1M lithium acetate. Cells are then resuspended in 10 mL TE+0.1M lithium acetate and incubated at 30° C. for 1 hour. Cells are collected and resuspended in 0.5 mL of TE+ 0.1M lithium acetate. Aliquots of cells (50 μL), were incubated for 15 minutes at 30° C. with 1–2 μg plasmid DNA in the presence of 5 μg of denatured salmon sperm DNA as DNA carrier. In the case of co-transformation, the indicated plasmids were added simultaneously. 50% polyethyleneglycol of molecular weight 4000, diluted in TE, was added to a final concentration of 35%. […]\nas §1"}, "[3]": {"target": "T3, Cf ΔA/B EcR + Cf ΔA/B USP + GRIP1 (Choristoneura fumiferana, UniProt O77240)", "T3 construct": "human ubiquitin (76 aa) (N, cleaved yes); expressed in transfected cells; host or cells: yeast (Saccharomyces cerevisiae)", "T3 sequence (O77240 entry or part of it, stated change not applied)": "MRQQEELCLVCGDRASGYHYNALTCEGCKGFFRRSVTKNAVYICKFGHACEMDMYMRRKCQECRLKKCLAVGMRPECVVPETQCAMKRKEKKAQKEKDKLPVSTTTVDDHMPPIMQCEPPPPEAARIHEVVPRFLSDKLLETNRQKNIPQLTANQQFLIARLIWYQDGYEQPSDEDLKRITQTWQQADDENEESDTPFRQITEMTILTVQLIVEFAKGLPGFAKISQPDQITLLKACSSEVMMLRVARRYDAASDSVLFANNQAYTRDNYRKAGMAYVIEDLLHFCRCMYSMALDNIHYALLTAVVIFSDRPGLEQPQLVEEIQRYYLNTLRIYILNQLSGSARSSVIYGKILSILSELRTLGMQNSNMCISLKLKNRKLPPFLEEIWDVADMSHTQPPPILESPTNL", "T3 sequence (O76202 with tags, fused parts or gaps partner)": "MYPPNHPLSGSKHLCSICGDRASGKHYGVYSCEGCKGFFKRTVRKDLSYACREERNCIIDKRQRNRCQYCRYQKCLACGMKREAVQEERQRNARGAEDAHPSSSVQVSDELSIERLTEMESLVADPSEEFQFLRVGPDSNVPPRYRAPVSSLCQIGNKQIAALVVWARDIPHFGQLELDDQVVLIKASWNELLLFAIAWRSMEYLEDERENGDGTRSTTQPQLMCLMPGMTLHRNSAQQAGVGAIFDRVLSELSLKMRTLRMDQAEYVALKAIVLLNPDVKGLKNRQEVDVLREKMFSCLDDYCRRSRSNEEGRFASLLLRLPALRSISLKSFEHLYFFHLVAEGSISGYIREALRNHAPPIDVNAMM", "assay_type": "cell-based", "conditions": "RH 5992 10 μM, 4 hours, DMSO control 0.200", "protocol": "Briefly, yeast cells are cultured in 5 mL of YPD liquid medium overnight at 30° C. The cell culture was diluted 1:20 in YPD media and further grown until cell density reached an O.D of 0.6. at OD600. The cells were pelleted by centrifugation and washed with 10 mL of TE+0.1M lithium acetate. Cells are then resuspended in 10 mL TE+0.1M lithium acetate and incubated at 30° C. for 1 hour. Cells are collected and resuspended in 0.5 mL of TE+ 0.1M lithium acetate. Aliquots of cells (50 μL), were incubated for 15 minutes at 30° C. with 1–2 μg plasmid DNA in the presence of 5 μg of denatured salmon sperm DNA as DNA carrier. In the case of co-transformation, the indicated plasmids were added simultaneously. 50% polyethyleneglycol of molecular weight 4000, diluted in TE, was added to a final concentration of 35%. DMSO was added to the transformation solution simultaneously to a final concentration 3%. The samples were mixed well by vortexing and incubated for an additional 30 minutes at 30° C. The cell mixture is then heated for 15 minutes at 42° C. Cells were then collected and plated onto appropriate yeast selective media. Transformants of 4 plasmids are selected on the complete media without tryptophan, uracil, leucine and histidine.\nThe yeast cells grown overnight in selective liquid media at 30° C. were diluted in prewarmed liquid selective media to 0.1 at OD600 (ODculture). […]"}}, "note": "“And” between values parts separate entries of the source, which are not always exact repeats. Equal entries are not always repeated.", "data": [{"molecule": "CCc1ccc(C(=O)NN(C(=O)c2cc(C)cc(C)c2)C(C)(C)C)cc1", "note": "[RH 5992, tebufenozide]", "values": [{"measurement": "β-galactosidase activity", "setting": "[1]", "result": 1.283}, {"measurement": "β-galactosidase activity", "setting": "[2]", "result": 1.860}, {"measurement": "β-galactosidase activity", "setting": "[3]", "result": "2.500 and 3.000"}]}]}
